The source of these data is ChEMBL document CHEMBL3232720, “Boseongazepines A-C, pyrrolobenzodiazepine derivatives from a Streptomyces sp. 11A057” (Bioorg Med Chem Lett, 2014).

Active and inactive are the calls of the source. The calls are words filed in the database; no cut-off is given here.

The subject of one experiment is Bacillus subtilis. The experiment in a line: Antimicrobial activity against Bacillus subtilis assessed as growth inhibition at 50 ug/disk after 48 hrs by paper disk method. The experiment is classed as functional, organism-based.
In a further experiment the test system is Escherichia coli. The experiment in a line: Antimicrobial activity against Escherichia coli assessed as growth inhibition at 50 ug/disk after 48 hrs by paper disk method. It is filed as functional, organism-based.
For another experiment, the system named is K562. The experiment in a line: Growth inhibition of human K562 cells after 96 hrs by EZ-CyTox cell viability assay. The experiment is classed as functional, cell-based. To be noted: K562, 96 h.
The subject of a further experiment is Staphylococcus aureus. The experiment in a line: Antimicrobial activity against Staphylococcus aureus assessed as growth inhibition at 50 ug/disk after 48 hrs by paper disk method. The experiment is classed as functional, organism-based.
The test system of a further experiment is HepG2. The experiment in a line: Growth inhibition of human HepG2 cells after 96 hrs by EZ-CyTox cell viability assay. It is filed as functional, cell-based. The following applies: HepG2, 96 h.
A further experiment has as its system Aspergillus fumigatus. The experiment in a line: Antimicrobial activity against Aspergillus fumigatus assessed as growth inhibition at 50 ug/disk after 48 hrs by paper disk method. The experiment is classed as functional, organism-based.
Another experiment relates to Salinivibrio costicola. The experiment in a line: Antimicrobial activity against Vibrio costicola assessed as growth inhibition at 50 ug/disk after 48 hrs by paper disk method. The experiment is classed as functional, organism-based.
Another experiment has as its system Candida albicans. The experiment in a line: Antimicrobial activity against Candida albicans assessed as growth inhibition at 50 ug/disk after 48 hrs by paper disk method. It is filed as functional, organism-based.
The next experiment deals with HL-60. The experiment in a line: Growth inhibition of human HL60 cells after 96 hrs by EZ-CyTox cell viability assay. The following applies: HL-60, 96 h. It is filed as functional, cell-based.
For a further experiment, the system named is Jurkat. The experiment in a line: Growth inhibition of human Jurkat cells after 96 hrs by EZ-CyTox cell viability assay. The experiment is classed as functional, cell-based.

In general, IC50 refers to the concentration that inhibits the measured activity by half.

Regarding `C/C=C1\C[C@H]2CNc3ccccc3C(=O)N2C1`, the “growth inhibition (GI)” value in the experiment with Bacillus subtilis, with Escherichia coli, in the experiment on Staphylococcus aureus, in the experiment with Aspergillus fumigatus, in the experiment on Salinivibrio costicola and in the experiment with Candida albicans was “inactive” each time. Moreover, the IC50 in the experiment on K562 came to 58.8 µM; in the experiment on HepG2, 68.9 µM; in the experiment on HL-60, 64.5 µM; in the experiment with Jurkat, 23.9 µM.
As for `C/C=C1\C[C@H]2CNc3c(OC)cccc3C(=O)N2C1` [USABAMYCIN B], the “growth inhibition (GI)” value with Bacillus subtilis, in the experiment with Escherichia coli, in the experiment with Staphylococcus aureus, in the experiment with Aspergillus fumigatus, with Salinivibrio costicola and in the experiment on Candida albicans was “inactive” each time. The IC50 in the experiment on K562 came out at 10.1 µM; in the experiment on HepG2, 10.6 µM; in the experiment with HL-60 it was 13.5 µM; in the experiment with Jurkat, 6.26 µM.
With `C/C=C1\C[C@H]2C(=O)Nc3c(OC)cccc3C(=O)N2C1`, the “growth inhibition (GI)” value in the experiment on Bacillus subtilis, with Escherichia coli, with Staphylococcus aureus, with Aspergillus fumigatus, in the experiment with Salinivibrio costicola and with Candida albicans was “inactive” in each case. In addition, the IC50 with K562, in the experiment with HepG2, in the experiment with HL-60 and with Jurkat was above 100 µM throughout.
As to `COc1cccc2c1NC[C@@H]1CC(C(C)=O)=CN1C2=O`, the “growth inhibition (GI)” value in the experiment with Bacillus subtilis, with Escherichia coli, in the experiment on Staphylococcus aureus, in the experiment on Aspergillus fumigatus, with Salinivibrio costicola and in the experiment on Candida albicans was “inactive” throughout. Besides, the IC50 with K562 was above 100 µM; in the experiment with HepG2, 56.1 µM; in the experiment with HL-60, above 100 µM; in the experiment with Jurkat, 72 µM.
